Where two headings read alike, the source gives them in different places.
How the values were obtained:
[1] = molecular target: AM2 S31N (serine→asparagine mutation at residue 31 in the M2 protein) (Influenza A virus, UniProt P0DOF5, S31N); format: cell-based, influenza virus A/Udorn/72
[2] = molecular target: AM2 V27A (valine→alanine mutation at residue 27 in the M2 protein) (Influenza A virus, UniProt P0DOF5, V27A); format: cell-based, influenza virus A/Udorn/72

Compound | S31N OOcyte Inhibition at 100 uM (%) ([1]; pH 5.5) | V27A OOcyte Inhibition at 100 uM (%) ([2]; pH 5.5) | S31N OOcyte Inhibition at 100 uM (%) [1] | V27A OOcyte Inhibition at 100 uM (%) [2]
CSc1ccc(CNC23CC4CC(CC(C4)C2)C3)cc1 [Example 23, Adamantan-1-yl-(4-methylsulfanyl-benzyl)-amine] | A (key: (A)=31-95%; (B)=0-30%) | B (key: (A)=31-95%; (B)=0-30%) |  | 
c1coc(-c2ncc(CNC34CC5CC(CC(C5)C3)C4)cn2)c1 [Example 62a, N-((2-(furan-2-yl)pyrimidin-5-yl)methyl)adamantan-1-amine] |  |  | A (key: (A)=31-95%; (B)=0-30%) | B (key: (A)=31-95%; (B)=0-30%)
CC1(C)CCC(NCc2ccc(O)cc2O)CC1 [Example 108, 4-[(4,4-Dimethyl-cyclohexylamino)-methyl]-benzene-1,3-diol] | B (key: (A)=31-95%; (B)=0-30%) | B (key: (A)=31-95%; (B)=0-30%) |  | 
Fc1ccc(CNC23CC4CC(CC(C4)C2)C3)c(F)c1 [Example 54, Adamantan-1-yl-(2,4-difluoro-benzyl)-amine] | B (key: (A)=31-95%; (B)=0-30%) | B (key: (A)=31-95%; (B)=0-30%) |  | 
Oc1ccc(CNC2C3CC4CC(C3)CC2C4)cc1 (stereo not drawn) [Example 99, 4-(Adamantan-2-ylaminomethyl)-phenol] | B (key: (A)=31-95%; (B)=0-30%) | B (key: (A)=31-95%; (B)=0-30%) |  | 
Cc1cc(CNC23CC4CC(CC(C4)C2)C3)ccc1O [Example 51, 4-(Adamantan-1-ylaminomethyl)-2-methyl-phenol] | B (key: (A)=31-95%; (B)=0-30%) | B (key: (A)=31-95%; (B)=0-30%) |  | 
Clc1ccc(/C=C/CNC23CC4CC(CC(C4)C2)C3)cc1 [Example 200a, N-((E)-3-(4-chlorophenyl)allyl)adamantan-1-amine] |  |  | A (key: (A)=31-95%; (B)=0-30%) | B (key: (A)=31-95%; (B)=0-30%)
O=C(Oc1ccc(CNC23CC4CC(CC(C4)C2)C3)cc1)C1CC1 [Example 34, Cyclopropanecarboxylic acid 4-(adamantan-1-ylaminomethyl)-phenyl ester] | B (key: (A)=31-95%; (B)=0-30%) | B (key: (A)=31-95%; (B)=0-30%) |  | 
OCc1ccc(CNC23CC4CC(CC(C4)C2)C3)o1 [Example 77, [5-(Adamantan-1-ylaminomethyl)-furan-2-yl]methanol] | B (key: (A)=31-95%; (B)=0-30%) | B (key: (A)=31-95%; (B)=0-30%) |  | 
Oc1ccc2[nH]c(CNC34CC5CC(CC(C5)C3)C4)cc2c1 [Example 179a] |  |  | B (key: (A)=31-95%; (B)=0-30%) | B (key: (A)=31-95%; (B)=0-30%)
CC(=O)c1ccc(CNC23CC4CC(CC(C4)C2)C3)cc1 [Example 44a] |  |  | B (key: (A)=31-95%; (B)=0-30%) | B (key: (A)=31-95%; (B)=0-30%)
c1ncc(CCNCC23CC4CC(CC(C4)C2)C3)[nH]1 [Example 1, Adamantan-1-ylmethyl-[2-(3H-imidazol-4-yl)-ethyl]-amine] | B (key: (A)=31-95%; (B)=0-30%) | B (key: (A)=31-95%; (B)=0-30%) |  | 
c1csc(-c2ccc(CNC34CC5CC(CC(C5)C3)C4)cc2)c1 [Example 44, N-(4-(Thiophen-2-yl)benzyl)adamantan-1-amine] | A (key: (A)=31-95%; (B)=0-30%) | B (key: (A)=31-95%; (B)=0-30%) |  | 
Fc1ccc(C(F)(F)F)cc1CNC12CC3CC(CC(C3)C1)C2 [Example 62, Adamantan-1-yl-(2-fluoro-5-trifluoromethyl-benzyl)-amine] | B (key: (A)=31-95%; (B)=0-30%) | B (key: (A)=31-95%; (B)=0-30%) |  | 
c1coc(CNC23CC4CC(CC(C4)C2)C3)c1 [Example 69a, Adamantan-1-yl-furan-2-ylmethyl-amine] |  |  | B (key: (A)=31-95%; (B)=0-30%) | B (key: (A)=31-95%; (B)=0-30%)

Source: patent publication US9884832B2 (priority 2011, dated 2018)
